Measurements published in US20160183526A1, “FUNGICIDAL COMPOSITIONS” (Dow AgroSciences LLC, priority 2014, published 2016).

Tests used:
Format in all cases: physicochemical
[1] = Solubility of a mixture of Compound A and prothioconazole in benzyl acetate/AMD810 blends at 10° C. (HPLC); settings: both actives saturated
Procedure: A study of the Compound A and prothioconazole solubility in blends of benzyl acetate/AMD810 was conducted. To each solvent blend both actives were added until each was saturated and the resulting mixtures were then stored at 10° C. until equilibrium was obtained. Aliquots of the supernatant layer were taken from each sample, filtered (0.45 μm mesh) and analyzed by HPLC to determine the solution concentration of each active in the blends.

[2] = Accelerated storage stability of Compound A in liquid compositions, 2 weeks at 54° C. (HPLC); settings: 2 weeks 54° C.
Procedure: The test compositions were prepared in a manner similar to that described in Example 1 using one or more of Compound A, prothioconazole, pyraclostrobin, benzyl acetate, and AMD 810, and a third solvent chosen from cyclohexanone, acetophenone, 2-heptanone, 2-heptanol, oleyl alcohol or 2-ethylhexanol.

[3] = Approximate relative solubility of active ingredients in organic solvents at ambient temperature
Procedure: The approximate solubility of Compound A was determined by mixing a known mass of the active ingredient with an increasing mass of each solvent at ambient temperature. […] The solubility of Compound A in the solvents used in this screening procedure was generally classified within the following concentration ranges: […]

[4] = as above; remark: listed apart in the source
[5] = Solubility of Compound A and prothioconazole in benzyl acetate/AMD810/cyclohexanone blends at 10° C.; settings: one week
Procedure: A total of 20 g of each solvent blend was prepared per sample. For example, one of the blends (Blend 4) was prepared by combining cyclohexanone 0.2 (4 g), benzyl acetate 0.2 (4 g) and AMD810 0.6 (12 g). To Blend 4 were added amounts of Compound A and prothioconazole technical active ingredients to achieve saturation concentrations of each. The samples were then stored at 10° C. for one week and then were analysed for soluble active ingredient content.

In the case of `COc1ccnc(C(=O)N[C@H]2COC(=O)[C@H](Cc3ccccc3)[C@@H](OC(=O)C(C)C)[C@H](C)OC2=O)c1OCOC(=O)C(C)C` [Compound A, propanoic acid, 2-methyl-, [[4-methoxy-2-[[[(3S,7R,8R,9S)-9-methyl-8-(2-methyl-1-oxopropoxy)-2,6-dioxo-7-(phenylmethyl)-1,5-dioxonan-3-yl]amino]carbonyl]-3-pyridinyl]oxy]methyl ester], the “Compound A Solubility at 10° C.” value ([1]; benzyl acetate 0 wt % in blend with AMD810) is reported as 3.3 % w/w, the “Compound A Solubility at 10° C.” value ([1]; benzyl acetate 20 wt % in blend with AMD810) is reported as 4.3 % w/w and the “Compound A Solubility at 10° C.” value ([1]; benzyl acetate 40 wt % in blend with AMD810) is reported as 6.5 % w/w. The “Compound A Solubility at 10° C.” value ([1]; benzyl acetate 60 wt % in blend with AMD810) was 11.0 % w/w, the “Compound A Solubility at 10° C.” value ([1]; benzyl acetate 80 wt % in blend with AMD810) was 12.0 % w/w and the “Compound A Solubility at 10° C.” value ([1]; benzyl acetate 100 wt % in blend with AMD810) was 14.3 % w/w. For the same molecule, the “Compound A after Storage (% retention)” value ([2]; wt %: Compound A 3.4, AMD 810 96.0) was 49^ % retention, the “Compound A after Storage (% retention)” value ([2]; wt %: Compound A 4.1, pyraclostrobin 5.2, benzyl acetate 37.0, AMD 810 20.0, cyclohexanone 8.2, emulsifier blend 14.7) was 93^2 % retention and the “Compound A after Storage (% retention)” value ([2]; wt %: Compound A 4.9, benzyl acetate 94.1) was 85^ % retention. For the same molecule, the “Compound A after Storage (% retention)” value ([2]; wt %: Compound A 4.9, prothioconazole 7.4, benzyl acetate 46.8, AMD 810 25.2, no third solvent, emulsifier blend 14.7) was 91^2 % retention, the “Compound A after Storage (% retention)” value ([2]; wt %: Compound A 4.9, pyraclostrobin 5.0, benzyl acetate 48.4, AMD 810 26.0, no third solvent, emulsifier blend 14.7) was 92^2 % retention and the “Compound A after Storage (% retention)” value ([2]; wt %: Compound A 4.9, pyraclostrobin 6.3, benzyl acetate 41.2, AMD 810 22.2, cyclohexanone 9.8) was 98^ % retention. For the same molecule, the “Compound A after Storage (% retention)” value ([2]; wt %: Compound A 4.9, pyraclostrobin 6.3, benzyl acetate 44.4, AMD 810 23.9, 2-ethyl hexanol 4.9, emulsifier blend 14.7) was 96^2 % retention, the “Compound A after Storage (% retention)” value ([2]; wt %: Compound A 4.9, pyraclostrobin 6.3, benzyl acetate 44.4, AMD 810 23.9, 2-heptanol 4.9, emulsifier blend 14.7) was 94^2 % retention and the “Compound A after Storage (% retention)” value ([2]; wt %: Compound A 4.9, pyraclostrobin 6.3, benzyl acetate 44.4, AMD 810 23.9, 2-heptanone 4.9, emulsifier blend 14.7) was 93^2 % retention. The “Compound A after Storage (% retention)” value ([2]; wt %: Compound A 4.9, pyraclostrobin 6.3, benzyl acetate 44.4, AMD 810 23.9, acetophenone 4.9, emulsifier blend 14.7) was 94^2 % retention, the “Compound A after Storage (% retention)” value ([2]; wt %: Compound A 4.9, pyraclostrobin 6.3, benzyl acetate 44.4, AMD 810 23.9, oleyl alcohol 4.9, emulsifier blend 14.7) was 92^2 % retention and the “Compound A after Storage (% retention)” value ([2]; wt %: Compound A 5.0, pyraclostrobin 6.4, benzyl acetate 40.9, AMD 810 22.0, 2-ethyl hexanol 10.0) was 95^ % retention. The “Compound A after Storage (% retention)” value ([2]; wt %: Compound A 7.7, pyraclostrobin 9.8, benzyl acetate 37.1, AMD 810 20.0, cyclohexanone 9.6) was 97^ % retention, the “Compound A after Storage (% retention)” value ([2]; wt %: Compound A 7.8, pyraclostrobin 9.9, benzyl acetate 36.7, AMD 810 19.8, 2-ethyl hexanol 9.7) was 97^ % retention and the “Compound A after Storage (% retention)” value ([2]; wt %: Compound A 12.0, cyclohexanone 85.7) was 96^ % retention. For the same molecule, the “Compound A content of clear solution” value ([3]; 0.2 g Compound A mixed with 1.38 g cyclohexanone) was 12.6 % w/w, the “Relative Solubility of Compound A” value ([3]; in 2-ethylhexanol) was “Very Low (<3.0)” and the “Relative Solubility of Compound A” value ([3]; in Alkyl naphthalene mixture) was “Very Low (<3.0)”. The “Relative Solubility of Compound A” value ([3]; in Benzyl acetate) was “High (>8.4)”, the “Relative Solubility of Compound A” value ([3]; in Cyclohexanone) was “High (>8.4)” and the “Relative Solubility of Compound A” value ([3]; in Isoparaffin) was “Very Low (<3.0)”. For the same molecule, the “Relative Solubility of Compound A” value ([3]; in Isopropyl benzoate) was “Medium (8.4 to 5.6)”, the “Relative Solubility of Compound A” value ([3]; in Methyl oleate) was “Very Low (<3.0)” and the “Relative Solubility of Compound A” value ([3]; in Methyl-5-(Dimethylamino)-2-Methyl-5-Oxopentanoate) was “High (>8.4)”. For the same molecule, the “Relative Solubility of Compound A” value ([3]; in Pentanedioic acid, 2-methyl-1, 5-dimethyl ester) was “Medium (8.4 to 5.6)”, the “Relative Solubility of Compound A” value ([3]; in Tributoxyethyl phosphate) was “Low (5.6 to 3.0)” and the “Relative Solubility of Compound A” value ([4]; in 2-ethylhexyl benzoate) was “Very Low (<3.0)”. For the same molecule, the “Relative Solubility of Compound A” value ([4]; in 2-ethylhexyl lactate) was “Very Low (<3.0)”, the “Relative Solubility of Compound A” value ([4]; in 2-heptanone) was “Medium (8.4 to 5.6)” and the “Relative Solubility of Compound A” value ([4]; in Benzyl alcohol) was “High (>8.4)”. For the same molecule, the “Relative Solubility of Compound A” value ([4]; in Butyl benzoate) was “Medium (8.4 to 5.6)”, the “Relative Solubility of Compound A” value ([4]; in Butyl lactate) was “Medium (8.4 to 5.6)” and the “Relative Solubility of Compound A” value ([4]; in Butylene carbonate) was “Very Low (<3.0)”. For the same molecule, the “Relative Solubility of Compound A” value ([4]; in Di-n-butyl carbonate) was “Very Low (<3.0)”, the “Relative Solubility of Compound A” value ([4]; in Diethylene glycol monoethyl ether) was “Low (5.6 to 3.0)” and the “Relative Solubility of Compound A” value ([4]; in Ethyl Diglycol Acetate) was “Low (5.6 to 3.0)”. For the same molecule, the “Relative Solubility of Compound A” value ([4]; in Methyl salicylate) was “High (>8.4)”, the “Relative Solubility of Compound A” value ([4]; in N,N dimethyl fatty acid amides) was “Low (5.6 to 3.0)” and the “Relative Solubility of Compound A” value ([4]; in N-formyl morpholine and propylene carbonate) was “High (>8.4)”. The “Relative Solubility of Compound A” value ([4]; in Polyethylene glycol) was “Very Low (<3.0)”, the “Relative Solubility of Compound A” value ([4]; in Polypropylene glycol) was “Very Low (<3.0)” and the “Relative Solubility of Compound A” value ([4]; in Propylene carbonate) was “Very Low (<3.0)”. For the same molecule, the “Relative Solubility of Compound A” value ([4]; in Soybean oil) was “Very Low (<3.0)”, the “Relative Solubility of Compound A” value ([4]; in Sulfolane) was “High (>8.4)” and the “Relative Solubility of Compound A” value ([4]; in dimethyl esters of adipic, glutaric and succinic acids) was “Low (5.6 to 3.0)”. For the same molecule, the “Compound A Solubility @ 10° C.” value ([5]; Blend 1: cyclohexanone 0/benzyl acetate 0/AMD810 1 (weight fraction)) was 3.3 % w/w, the “Compound A Solubility @ 10° C.” value ([5]; Blend 2: cyclohexanone 0/benzyl acetate 0.2/AMD810 0.8 (weight fraction)) was 4.3 % w/w and the “Compound A Solubility @ 10° C.” value ([5]; Blend 3: cyclohexanone 0.2/benzyl acetate 0/AMD810 0.8 (weight fraction)) was 4.5 % w/w. For the same molecule, the “Compound A Solubility @ 10° C.” value ([5]; Blend 4: cyclohexanone 0.2/benzyl acetate 0.2/AMD810 0.6 (weight fraction)) was 6.2 % w/w, the “Compound A Solubility @ 10° C.” value ([5]; Blend 5: cyclohexanone 0/benzyl acetate 0.4/AMD810 0.6 (weight fraction)) was 6.5 % w/w and the “Compound A Solubility @ 10° C.” value ([5]; Blend 6: cyclohexanone 0.2/benzyl acetate 0.4/AMD810 0.4 (weight fraction)) was 10.5 % w/w. The “Compound A Solubility @ 10° C.” value ([5]; Blend 7: cyclohexanone 0/benzyl acetate 0.6/AMD810 0.4 (weight fraction)) was 11 % w/w, the “Compound A Solubility @ 10° C.” value ([5]; Blend 8: cyclohexanone 0/benzyl acetate 0.8/AMD810 0.2 (weight fraction)) was 12 % w/w and the “Compound A Solubility @ 10° C.” value ([5]; Blend 10: cyclohexanone 0.2/benzyl acetate 0.6/AMD810 0.2 (weight fraction)) was 13.6 % w/w. The “Compound A Solubility @ 10° C.” value ([5]; Blend 11: cyclohexanone 0/benzyl acetate 1/AMD810 0 (weight fraction)) was 14.3 % w/w and the “Compound A Solubility @ 10° C.” value ([5]; Blend 12: cyclohexanone 0.2/benzyl acetate 0.8/AMD810 0 (weight fraction)) was 15.2 % w/w.
